# Marks after values point to notes of the source that are not given here.
# What was measured:
# [1] = system: A1 receptor / A2A receptor; assay: Affinity for adenosine A1 receptor relative to A2A receptor; format: binding
# Text: (§1) Therefore, DTI-0009 may be capable of terminating episodes of supraventricular arrythymias at doses that have little effect on normal heart rate or blood pressure.
# AV nodal conduction = assay: Slowing of AV nodal conduction versus heart rate reduction; format: in vivo; conditions: guinea pig
# Text: as §1
# [2] = system: adult patients with rapid atrial fibrillation (AF); assay: Example 1: ventricular rate control in atrial fibrillation, 15-minute i.v. loading dose plus maintenance dose; format: in vivo, human
# Experimental: A randomized, parallel-group, open label, dose-ranging study of DTI-0009 as a 15-minute intravenous loading dose (LD) followed by a maintenance dose (MD) infusion for up to 20 hours in adult patients with rapid atrial fibrillation (AF) (>120 bpm) was conducted. 78 patients were randomized to receive one of three LD regimens. If the ventricular rate (VR) was between 70 and 90 bpm 5 minutes after the end of the LD, then patients were randomized to one of the following three MDs of DTI-0009: 1.75 μg/kg/hr, 2.25 μg/kg/hr, or 2.75 μg/kg/hr. The MD was adjusted to keep the VR within the 70-90 bpm range.
# 63 of 69 patients completed the LD, 20 patients received a MD, and 18 patients completed at least 3 hours of MD. The VR remained below 100 bpm across all the dosing regimens during the 3-hour MD.
# [3] = system: patients with atrial fibrillation; assay: Example 4: placebo-controlled 15-minute i.v. infusion, heart rate and blood pressure in atrial fibrillation; format: in vivo, human
# Experimental: A double blind, placebo-controlled study was designed to establish the i.v. dose range of DTI-0009 that safely reduces heart rates in patients with atrial fibrillation. […] The patients' heart rates and blood pressures were measured periodically throughout the treatment period and for 75 and 80 minutes post-infusion, respectively. Safety assessments were made throughout the study and for up to three to seven days post-dose.
# [4] = Example 5: pharmacokinetics and renal function markers of short i.v. infusions in healthy subjects; format: in vivo, human
# Experimental: A study was designed to determine the dose dependent pharmacokinetics (PK) of short i.v. infusions of DTI-0009 in healthy subjects. Ten healthy young volunteer (ages 21 to 35 years old) received a 30-minute infusion of 1 μg/kg DTI-0009, or 5 μg/kg DTI-0009 or saline on three different occasions. The subjects were hydrated by a saline infusion ([…]) for one hour prior to and five hours after the start of the drug infusion. Serial plasma and urine samples were taken over 24 hours to measure DTI-0009 concentrations (as well as glucuronide, in urine only), creatinine, sodium and potassium by validated methods. The following renal function markers were assessed over time: urinary flow rate (UF), creatinine clearance (CLCrea), sodium clearance (CLNa) and potassium clearance (CLK). Additionally, noncompartmental PK analysis was performed and instantaneous renal clearance (CLren^inst) was estimated as a function of UF and CLcrea.
compound,measurement,setting,value
"CCNC(=O)[C@H]1O[C@@H](n2cnc3c(NC4CCCC4)ncnc32)[C@H](O)[C@@H]1O [DTI-0009, N^6-cyclopentyl-5′-(N-ethyl)carboxamidoadenosine]",affinity for the A1 receptor higher than for the A2A receptor,[1],340 fold
same,potency at slowing AV nodal conduction versus reducing heart rate,AV nodal conduction; in vivo,three times more potent at slowing AV nodal conduction than at reducing heart rate
same,rate dependence of slowing AV nodal conduction,AV nodal conduction; rapid atrial pacing vs normal sinus rhythm,more potent at slowing AV nodal conduction during periods of rapid atrial pacing than during normal sinus rhythm
same,ventricular rate (VR),"[2]; LD 2.5 μg/kg, 5 min, Baseline 143",129^a bpm
same,ventricular rate (VR),"[2]; LD 2.5 μg/kg, 10 min, Baseline 143",117^a bpm
same,ventricular rate (VR),"[2]; LD 2.5 μg/kg, 15 min, Baseline 143",113^b bpm
same,ventricular rate (VR),"[2]; LD 2.5 μg/kg, 20 min, Baseline 143",115^b bpm
same,ventricular rate (VR),"[2]; LD 5.0 μg/kg, 5 min, Baseline 138",115^b bpm
same,ventricular rate (VR),"[2]; LD 5.0 μg/kg, 10 min, Baseline 138",104^b bpm
same,ventricular rate (VR),"[2]; LD 5.0 μg/kg, 15 min, Baseline 138",108^b bpm
same,ventricular rate (VR),"[2]; LD 5.0 μg/kg, 20 min, Baseline 138",111^b bpm
same,ventricular rate (VR),"[2]; LD 7.5 μg/kg, 5 min, Baseline 143","110^b,c bpm"
same,ventricular rate (VR),"[2]; LD 7.5 μg/kg, 10 min, Baseline 143","99^b,c bpm"
same,ventricular rate (VR),"[2]; LD 7.5 μg/kg, 15 min, Baseline 143",105^b bpm
same,ventricular rate (VR),"[2]; LD 7.5 μg/kg, 20 min, Baseline 143",106^b bpm
same,VR during maintenance dose,"[2]; all dosing regimens, 3-hour MD",below 100 bpm
same,systolic and diastolic blood pressures,[2]; during the LD,did not change significantly
same,DBP,"[3]; 2 μg/kg (11 patients), 30 minutes after start of infusion (BP 35 minutes, footnote c), Baseline 82.2",77.8^e mmHg
same,SBP,"[3]; 2 μg/kg (11 patients), 30 minutes after start of infusion (BP 35 minutes, footnote c), Baseline 130.7",129.5^e mmHg
same,DBP,"[3]; 2 μg/kg (n = 12), 5 minutes after start of infusion, Baseline 82.2",87.7 mmHg
same,HR,"[3]; 2 μg/kg (n = 12), 5 minutes after start of infusion, Baseline 129.9",117.1^a bpm
same,SBP,"[3]; 2 μg/kg (n = 12), 5 minutes after start of infusion, Baseline 130.7",136.6 mmHg
same,DBP,"[3]; 2 μg/kg (n = 12), 15 minutes after start of infusion, Baseline 82.2",84.6 mmHg
same,HR,"[3]; 2 μg/kg (n = 12), 15 minutes after start of infusion, Baseline 129.9",102.4^b bpm
same,SBP,"[3]; 2 μg/kg (n = 12), 15 minutes after start of infusion, Baseline 130.7",134.4 mmHg
same,HR,"[3]; 2 μg/kg (n = 12), 30 minutes after start of infusion, Baseline 129.9",112.1^a bpm
same,HR,"[3]; 4 μg/kg (8 patients), 30 minutes after start of infusion, Baseline 143.9","115.1^a,d bpm"
same,DBP,"[3]; 4 μg/kg (n = 9), 5 minutes after start of infusion, Baseline 75.0",76.3 mmHg
same,SBP,"[3]; 4 μg/kg (n = 9), 5 minutes after start of infusion, Baseline 132.1",127.4 mmHg
same,HR,"[3]; 4 μg/kg (n = 9), 5 minutes after start of infusion, Baseline 143.9",114.9^a bpm
same,DBP,"[3]; 4 μg/kg (n = 9), 15 minutes after start of infusion, Baseline 75.0",68.7 mmHg
same,SBP,"[3]; 4 μg/kg (n = 9), 15 minutes after start of infusion, Baseline 132.1",132.8 mmHg
same,HR,"[3]; 4 μg/kg (n = 9), 15 minutes after start of infusion, Baseline 143.9",100.1^b bpm
same,DBP,"[3]; 4 μg/kg (n = 9), 30 minutes after start of infusion (BP 35 minutes, footnote c), Baseline 75.0",72.2 mmHg
same,SBP,"[3]; 4 μg/kg (n = 9), 30 minutes after start of infusion (BP 35 minutes, footnote c), Baseline 132.1",122.0 mmHg
same,DBP,"[3]; 6 μg/kg (n = 9), 5 minutes after start of infusion, Baseline 69.4",72.9 mmHg
same,SBP,"[3]; 6 μg/kg (n = 9), 5 minutes after start of infusion, Baseline 122.1",126.8 mmHg
same,HR,"[3]; 6 μg/kg (n = 9), 5 minutes after start of infusion, Baseline 140.2",117.1^a bpm
same,DBP,"[3]; 6 μg/kg (n = 9), 15 minutes after start of infusion, Baseline 69.4",70.4 mmHg
same,SBP,"[3]; 6 μg/kg (n = 9), 15 minutes after start of infusion, Baseline 122.1",126.8 mmHg
same,HR,"[3]; 6 μg/kg (n = 9), 15 minutes after start of infusion, Baseline 140.2",100.4^b bpm
same,DBP,"[3]; 6 μg/kg (n = 9), 30 minutes after start of infusion (BP 35 minutes, footnote c), Baseline 69.4",68.7 mmHg
same,SBP,"[3]; 6 μg/kg (n = 9), 30 minutes after start of infusion (BP 35 minutes, footnote c), Baseline 122.1",115.4 mmHg
same,HR,"[3]; 6 μg/kg (n = 9), 30 minutes after start of infusion, Baseline 140.2",114.4^a bpm
same,DBP,"[3]; 8 μg/kg (n = 7), 5 minutes after start of infusion, Baseline 82.3",85.1 mmHg
same,SBP,"[3]; 8 μg/kg (n = 7), 5 minutes after start of infusion, Baseline 131.6",141.4 mmHg
same,HR,"[3]; 8 μg/kg (n = 7), 5 minutes after start of infusion, Baseline 133.7",101.4^a bpm
same,DBP,"[3]; 8 μg/kg (n = 7), 15 minutes after start of infusion, Baseline 82.3",80.3 mmHg
same,SBP,"[3]; 8 μg/kg (n = 7), 15 minutes after start of infusion, Baseline 131.6",145.3 mmHg
same,HR,"[3]; 8 μg/kg (n = 7), 15 minutes after start of infusion, Baseline 133.7",90.9^a bpm
same,DBP,"[3]; 8 μg/kg (n = 7), 30 minutes after start of infusion (BP 35 minutes, footnote c), Baseline 82.3",77.4 mmHg
same,SBP,"[3]; 8 μg/kg (n = 7), 30 minutes after start of infusion (BP 35 minutes, footnote c), Baseline 131.6",134.4 mmHg
same,HR,"[3]; 8 μg/kg (n = 7), 30 minutes after start of infusion, Baseline 133.7",96.3^a bpm
same,DBP,"[3]; 10 μg/kg (n = 8), 5 minutes after start of infusion, Baseline 75.9",83.1 mmHg
same,SBP,"[3]; 10 μg/kg (n = 8), 5 minutes after start of infusion, Baseline 128.3",140.6 mmHg
same,HR,"[3]; 10 μg/kg (n = 8), 5 minutes after start of infusion, Baseline 142.5",110.0^b bpm
same,DBP,"[3]; 10 μg/kg (n = 8), 15 minutes after start of infusion, Baseline 75.9",73.0 mmHg
same,SBP,"[3]; 10 μg/kg (n = 8), 15 minutes after start of infusion, Baseline 128.3",125.8 mmHg
same,HR,"[3]; 10 μg/kg (n = 8), 15 minutes after start of infusion, Baseline 142.5",95.4^a bpm
same,DBP,"[3]; 10 μg/kg (n = 8), 30 minutes after start of infusion (BP 35 minutes, footnote c), Baseline 75.9",71.3 mmHg
same,SBP,"[3]; 10 μg/kg (n = 8), 30 minutes after start of infusion (BP 35 minutes, footnote c), Baseline 128.3",126.1 mmHg
same,HR,"[3]; 10 μg/kg (n = 8), 30 minutes after start of infusion, Baseline 142.5",104.6^a bpm
same,DBP,"[3]; 12 μg/kg (n = 4), 5 minutes after start of infusion, Baseline 80.5",82.5 mmHg
same,SBP,"[3]; 12 μg/kg (n = 4), 5 minutes after start of infusion, Baseline 119.5",131.5 mmHg
same,HR,"[3]; 12 μg/kg (n = 4), 5 minutes after start of infusion, Baseline 120.0",82.0^a bpm
same,DBP,"[3]; 12 μg/kg (n = 4), 15 minutes after start of infusion, Baseline 80.5",78.5 mmHg
same,SBP,"[3]; 12 μg/kg (n = 4), 15 minutes after start of infusion, Baseline 119.5",122.5 mmHg
same,HR,"[3]; 12 μg/kg (n = 4), 15 minutes after start of infusion, Baseline 120.0",74.5^a bpm
same,DBP,"[3]; 12 μg/kg (n = 4), 30 minutes after start of infusion (BP 35 minutes, footnote c), Baseline 80.5",68.5^a mmHg
same,SBP,"[3]; 12 μg/kg (n = 4), 30 minutes after start of infusion (BP 35 minutes, footnote c), Baseline 119.5",118.5 mmHg
same,HR,"[3]; 12 μg/kg (n = 4), 30 minutes after start of infusion, Baseline 120.0",88.0^a bpm
same,changes in systolic or diastolic blood pressures,"[3]; any treatment group, infusion period and up to 80 minutes post-infusion",no clinically significant changes
same,Vdss,[4],approached body weight
same,duration of inhibitory effects on CLCrea,[4],1 to 2 h
same,duration of inhibitory effects on CLNa,[4],3 to 4 h
same,time at which dose-dependent secondary effects (rebounds) in UF and natriuresis were apparent,[4],5 to 10 h
same,CLnonren with increasing dose,[4]; 1 μg/kg vs 5 μg/kg,appeared unchanged
same,CLren reduced with increasing dose,[4]; 1 μg/kg vs 5 μg/kg,29%
same,CLtot reduced with increasing dose,[4]; 1 μg/kg vs 5 μg/kg,25%
same,eliminated unchanged in urine,[4]; 30-minute i.v. infusion of 1 or 5 μg/kg,About 42%
same,"effect on diuresis, natriuresis and kaliuresis","[4]; initially, dose-dependent inhibition of CLcrea, CLNa and to a lesser extent CLK","transiently reduced diuresis, natriuresis and kaliuresis"

# Reference: patent publication US20050009776A1, “Method of treating atrial fibrillation or atrial flutter” (Aderis Pharmaceuticals, Inc., priority 2003, published 2005)
